# Source: PMC7431030 (Nature, 2020)
# “Also recorded” adds a separate entry of the source. Square brackets hold non-standard residues; d marks the D form. Peptide text beside a SMILES is read from it. NMeTrp(1-(4-Br-benzyl)) = CN[C@@H](Cc1cn(Cc2ccc(Br)cc2)c2ccccc12)C(=O)O; Butanoyl(2R-oxy,4-CN) = N#CCC[C@@H](O)C(=O)O; NMeL = CN[C@@H](CC(C)C)C(=O)O; NMeA = CN[C@@H](C)C(=O)O
# Tests used:
# [1] = system: SIGMAR2/TMEM97; details: annotated activity, Extended Data Fig. 10b; cited from earlier work
# [2] = system: SARS-CoV-2; assay type: cell-based
# [3] = system: SARS-CoV-2; assay type: cell-based; remark: listed apart in the source
# [4] = system: SARS-CoV-2; assay type: cell-based; details: Vero E6 cells
# [5] = system: viral replication; details: cited from earlier work
# [6] = system: SIGMAR1; details: Extended Data Fig. 10b, cited from earlier work
SMILES,antiviral activity / viral infectivity (in words) [4],further results
Cc1cc(OCCN2CCOCC2)nn1-c1ccc2ccccc2c1 [E-52862],–,"binding at SIGMAR2/TMEM97, reported [1]: greater than 1 μM"
COc1cccc2c1CCCC2CCCN1CCN(C2CCCCC2)CC1 (stereo not shown) [PB28],effectively reducing viral infectivity,times more potent than hydroxychloroquine [2]: ~ 20 times; detection of the viral NP protein (in words) [3]: decreased the detection of the viral NP protein
CCCN1CCC=C(c2cc(-c3ccc(C)cc3)no2)C1.O=C(O)C(=O)O [PD-144418],effectively reducing viral infectivity,–
"CC(C)C[C@@H]1NC(=O)[C@H](Cc2cn(Cc3ccc(Br)cc3)c3ccccc23)N(C)C(=O)[C@H](CC(C)C)NC(=O)[C@H](CC(C)C)N(C)C(=O)[C@H](CC(C)C)NC(=O)[C@@H](CCC#N)OC(=O)[C@H](C)N(C)C1=O [PS3061] (cyclo(L[NMeA][Butanoyl(2R-oxy,4-CN)]L[NMeL]L[NMeTrp(1-(4-Br-benzyl))]))",effectively reducing viral infectivity; also recorded: blocked SARS-CoV-2 replication,–
CCCCc1oc2ccccc2c1C(=O)c1cc(I)c(OCCN(CC)CC)c(I)c1 [amiodarone],–,activity in viral replication assays reported by others (in words) [5]: active in viral replication assays
COc1ccc(CCN2CCC(Nc3nc4ccccc4n3Cc3ccc(F)cc3)CC2)cc1 [astemizole],–,activity in viral replication assays reported by others (in words) [5]: active in viral replication assays
Clc1ccc(C(OCCN2CCCCC2)c2ccccc2)cc1 (stereo not shown) [cloperastine],antiviral activity,–
COc1ccc2c(c1)[C@]13CCCC[C@@H]1[C@H](C2)N(C)CC3 [dextromethorphan],pro-viral activity,"viral titers (TCID50), effect in words [2]: increases viral titers"
"O=C(CCCN1CCC(O)(c2ccc(Cl)cc2)CC1)c1ccc(F)cc1 [haloperidol, Haloperidol]",effectively reducing viral infectivity; also recorded: antiviral activity,–
CCN(CCO)CCCC(C)Nc1ccnc2cc(Cl)ccc12 (stereo not shown) [hydroxychloroquine],effectively reducing viral infectivity,detection of the viral NP protein (in words) [3]: decreased the detection of the viral NP protein
Cc1cc2c(s1)Nc1ccccc1N=C2N1CCN(C)CC1 [olanzapine],not antiviral,"Sigma receptor activity (in words) [6]: little Sigma receptor activity; activity at SIGMAR1, reported ([6]; annotated activity): greater than 5 μM"
CC(=O)[C@H]1CC[C@H]2[C@@H]3CCC4=CC(=O)CC[C@]4(C)[C@H]3CC[C@]12C [progesterone],antiviral,–
Fc1ccc(-n2cc(CCCCN3CCC4(CC3)OCc3ccccc34)c3ccccc32)cc1 [siramesine],antiviral,–
COc1ccc(CCN(C)CCCC(C#N)(c2ccc(OC)c(OC)c2)C(C)C)cc1OC (stereo not shown) [verapamil],–,activity in viral replication assays reported by others (in words) [5]: active in viral replication assays
COc1cc2c(c(OC)n1)[C@]1(O)[C@H](O)[C@H](CN(C)C)[C@@H](c3ccccc3)[C@]1(c1ccc(C#N)cc1)O2 [zotatifin],reduce viral infectivity in a concentration-dependent matter; also recorded: effectively reducing viral infectivity; also recorded: strong antiviral effect,detection of the viral NP protein (in words) [3]: decreased the detection of the viral NP protein
